#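 Results reflect a 48-hour exposure of cells in 96-well plates to compound at five concentrations. Abbreviation: GI50, concentration required for 50% inhibition of growth. TGI is the concentration that stops growth completely.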
# What was measured:
# Test in all cases: NCI anticancer screen, dose series, 48 h
# RXF 393 renal = system: RXF 393 renal
# OVCAR-4 ovarian = system: OVCAR-4 ovarian
# COLO 205 colon = system: COLO 205 colon
# U251 CNS = system: U251 CNS
# MCF7 breast = system: MCF7 breast
# UO-31 renal = system: UO-31 renal
# MOLT-4 leukemia = system: MOLT-4 leukemia
# BT-549 breast = system: BT-549 breast
# HOP-92 NSCLC = system: HOP-92 NSCLC
# SNB-19 CNS = system: SNB-19 CNS
# IGROV1 ovarian = system: IGROV1 ovarian
# OVCAR-8 ovarian = system: OVCAR-8 ovarian
# HCT-116 colon = system: HCT-116 colon
# SK-MEL-5 melanoma = system: SK-MEL-5 melanoma
# OVCAR-3 ovarian = system: OVCAR-3 ovarian
# OVCAR-5 ovarian = system: OVCAR-5 ovarian
# UACC-257 melanoma = system: UACC-257 melanoma
# SW-620 colon = system: SW-620 colon
# CCRF-CEM leukemia = system: CCRF-CEM leukemia
# SR leukemia = system: SR leukemia
# NCI-H522 lung = system: NCI-H522 lung
# SK-MEL-28 melanoma = system: SK-MEL-28 melanoma
# ACHN renal = system: ACHN renal
# CAKI-1 renal = system: CAKI-1 renal
# HS 578T breast = system: HS 578T breast
# HT29 colon = system: HT29 colon
# NCI-H460 lung = system: NCI-H460 lung
# SF-539 CNS = system: SF-539 CNS
# MALME-3M melanoma = system: MALME-3M melanoma
# K-562 leukemia = system: K-562 leukemia
# HCT-15 colon = system: HCT-15 colon
# A549 NSCLC = system: A549 NSCLC
# SF-295 CNS = system: SF-295 CNS
# NCI-H226 lung = system: NCI-H226 lung
# SF-268 CNS = system: SF-268 CNS
# LOX IMVI melanoma = system: LOX IMVI melanoma
# SK-MEL-2 melanoma = system: SK-MEL-2 melanoma
# RPMI-8226 leukemia = system: RPMI-8226 leukemia
# SNB-75 CNS = system: SNB-75 CNS
# MDA-MB-231 breast = system: MDA-MB-231 breast
# KM12 colon = system: KM12 colon
# TK-10 renal = system: TK-10 renal
# A498 renal = system: A498 renal
# UACC-62 melanoma = system: UACC-62 melanoma
# DU-145 prostate = system: DU-145 prostate
# NCI/ADR-RES ovarian = system: NCI/ADR-RES ovarian
# NCI-H23 lung = system: NCI-H23 lung
# PC-3 prostate = system: PC-3 prostate
# EKVX NSCLC = system: EKVX NSCLC
# HL-60(TB) leukemia = system: HL-60(TB) leukemia
# T-47D breast = system: T-47D breast
# SK-OV-3 ovarian = system: SK-OV-3 ovarian
# 786-0 renal = system: 786-0 renal
# HCC-2998 colon = system: HCC-2998 colon
# SN12C renal = system: SN12C renal
# M14 melanoma = system: M14 melanoma
# HOP-62 NSCLC = system: HOP-62 NSCLC
# MDA-MB-435 = system: MDA-MB-435
smiles,measurement,setting,value
CS(=O)(=O)CCNCc1coc(-c2ccc3ncnc(Nc4ccc(OCc5ccccc5)cc4)c3c2)c1,GI50,RXF 393 renal,2.91 µM
same,TGI,RXF 393 renal,7.27 µM
same,GI50,OVCAR-4 ovarian,5.94 µM
same,TGI,OVCAR-4 ovarian,> 25 µM
same,GI50,COLO 205 colon,4.78 µM
same,TGI,COLO 205 colon,9.84 µM
same,GI50,U251 CNS,4.72 µM
same,TGI,U251 CNS,> 14.2 µM
same,GI50,MCF7 breast,3.77 µM
same,TGI,MCF7 breast,12.3 µM
same,GI50,UO-31 renal,2.86 µM
same,TGI,UO-31 renal,6.95 µM
same,GI50,MOLT-4 leukemia,5.2 µM
same,TGI,MOLT-4 leukemia,16.3 µM
same,GI50,BT-549 breast,10.9 µM
same,TGI,BT-549 breast,> 25 µM
same,GI50,HOP-92 NSCLC,2.62 µM
same,TGI,HOP-92 NSCLC,17.3 µM
same,GI50,SNB-19 CNS,6.4 µM
same,TGI,SNB-19 CNS,> 25 µM
same,GI50,IGROV1 ovarian,3.7 µM
same,TGI,IGROV1 ovarian,> 20.7 µM
same,GI50,OVCAR-8 ovarian,8.66 µM
same,TGI,OVCAR-8 ovarian,> 25 µM
same,GI50,HCT-116 colon,3.88 µM
same,TGI,HCT-116 colon,7.53 µM
same,GI50,SK-MEL-5 melanoma,3.27 µM
same,TGI,SK-MEL-5 melanoma,6.46 µM
same,GI50,OVCAR-3 ovarian,3.46 µM
same,TGI,OVCAR-3 ovarian,13.7 µM
same,GI50,OVCAR-5 ovarian,4.22 µM
same,TGI,OVCAR-5 ovarian,11.7 µM
same,GI50,UACC-257 melanoma,3.67 µM
same,TGI,UACC-257 melanoma,7.39 µM
same,GI50,SW-620 colon,4.34 µM
same,TGI,SW-620 colon,8.34 µM
same,GI50,CCRF-CEM leukemia,4.92 µM
same,TGI,CCRF-CEM leukemia,14.5 µM
same,GI50,SR leukemia,4.81 µM
same,TGI,SR leukemia,12.9 µM
same,GI50,NCI-H522 lung,3.32 µM
same,TGI,NCI-H522 lung,6.9 µM
same,GI50,SK-MEL-28 melanoma,3.83 µM
same,TGI,SK-MEL-28 melanoma,7.49 µM
same,GI50,ACHN renal,3.69 µM
same,TGI,ACHN renal,17.1 µM
same,GI50,CAKI-1 renal,3.98 µM
same,TGI,CAKI-1 renal,13.4 µM
same,GI50,HS 578T breast,2.45 µM
same,TGI,HS 578T breast,7.66 µM
same,GI50,HT29 colon,3.4 µM
same,TGI,HT29 colon,7.77 µM
same,GI50,NCI-H460 lung,3.86 µM
same,TGI,NCI-H460 lung,8.5 µM
same,GI50,SF-539 CNS,4.25 µM
same,TGI,SF-539 CNS,8.82 µM
same,GI50,MALME-3M melanoma,4.71 µM
same,TGI,MALME-3M melanoma,9.57 µM
same,GI50,K-562 leukemia,4.54 µM
same,TGI,K-562 leukemia,11 µM
same,GI50,HCT-15 colon,4.15 µM
same,TGI,HCT-15 colon,9.53 µM
same,GI50,A549 NSCLC,5.65 µM
same,TGI,A549 NSCLC,> 22 µM
same,GI50,SF-295 CNS,4.39 µM
same,TGI,SF-295 CNS,9.19 µM
same,GI50,NCI-H226 lung,> 12.8 µM
same,TGI,NCI-H226 lung,> 25 µM
same,GI50,SF-268 CNS,3.35 µM
same,TGI,SF-268 CNS,7.5 µM
same,GI50,LOX IMVI melanoma,4.27 µM
same,TGI,LOX IMVI melanoma,8.81 µM
same,GI50,SK-MEL-2 melanoma,4.55 µM
same,TGI,SK-MEL-2 melanoma,8.92 µM
same,GI50,RPMI-8226 leukemia,4.86 µM
same,TGI,RPMI-8226 leukemia,11.6 µM
same,GI50,SNB-75 CNS,3.92 µM
same,TGI,SNB-75 CNS,10 µM
same,GI50,MDA-MB-231 breast,4.15 µM
same,TGI,MDA-MB-231 breast,8.26 µM
same,GI50,KM12 colon,4.68 µM
same,TGI,KM12 colon,11.9 µM
same,GI50,TK-10 renal,1.95 µM
same,TGI,TK-10 renal,12.2 µM
same,GI50,A498 renal,1.49 µM
same,TGI,A498 renal,6.25 µM
same,GI50,UACC-62 melanoma,4.31 µM
same,TGI,UACC-62 melanoma,8.18 µM
same,GI50,DU-145 prostate,3.75 µM
same,TGI,DU-145 prostate,> 25 µM
same,GI50,NCI/ADR-RES ovarian,9.47 µM
same,TGI,NCI/ADR-RES ovarian,> 25 µM
same,GI50,NCI-H23 lung,9.18 µM
same,TGI,NCI-H23 lung,> 25 µM
same,GI50,PC-3 prostate,8.95 µM
same,TGI,PC-3 prostate,> 25 µM
same,GI50,EKVX NSCLC,1.25 µM
same,TGI,EKVX NSCLC,> 25 µM
same,GI50,HL-60(TB) leukemia,4.15 µM
same,TGI,HL-60(TB) leukemia,9.13 µM
same,GI50,T-47D breast,3.57 µM
same,TGI,T-47D breast,8.03 µM
same,GI50,SK-OV-3 ovarian,1.71 µM
same,TGI,SK-OV-3 ovarian,> 16.2 µM
same,GI50,786-0 renal,4.16 µM
same,TGI,786-0 renal,9.12 µM
same,GI50,HCC-2998 colon,4.16 µM
same,TGI,HCC-2998 colon,7.91 µM
same,GI50,SN12C renal,3.57 µM
same,TGI,SN12C renal,8.04 µM
same,GI50,M14 melanoma,4.44 µM
same,TGI,M14 melanoma,9.11 µM
same,GI50,HOP-62 NSCLC,5.03 µM
same,TGI,HOP-62 NSCLC,11.1 µM
same,GI50,MDA-MB-435,4.11 µM
same,TGI,MDA-MB-435,8.23 µM
